pIC50: −log10 of the molar value.
What was measured:
[1] = system: KG1a leukaemic stem cell compartment (Lin−/CD34+/CD38−/CD123+); experiment: Leukaemic stem cell compartment in KG1a; assay type: cell-based; details: for Change relative to control (%): % LSC compartment versus the series' control; for KG-1a (CD34+/CD38−/CD123+) % compartment: LSC as percentage of viable cells left, 72 hrs
Protocol: A further comparative analysis of the toxicity of compounds in the KG1a cell line over an extended dose range was carried out, and the relative effect assessed of the compounds on the leukaemic stem cell compartment within the KG1a cell line, across the entire dose range. Thus, experimental tests were performed on certain compounds of the present invention to assess their ability to target cancer stem cells in a leukaemic cell line. The acute myeloid leukaemia (AML) cell line, KG1a, was employed to assess the relative effect of compounds on the stem cell compartment. The KG1a cell line was selected because it manifests a minor stem cell-like compartment with a distinct immunophenotype (Lin^−/CD34^+/CD38^−/CD123^+).
Cells of the KG1a cell line were maintained in RPMI medium (Invitrogen, Paisley, UK) supplemented with 100 units/ml penicillin, 100 μg/ml streptomycin and 20% foetal calf serum. Cells were subsequently aliquoted (10^5 cells/100 μl) into 96-well plates and were incubated at 37° C. in a humidified 5% carbon dioxide atmosphere for 72 hrs in the presence of nucleoside analogues and their respective nucleotide analogues (known as ProTides) at concentrations that were experimentally determined for each series of compounds. In addition, control cultures were carried out to which no drug was added. Cells were subsequently harvested by centrifugation and were analyzed by flow cytometry using the Annexin V assay.
KG1a cells were cultured for 72 hrs in the presence of a wide range of concentrations of each compound assayed. Cells were then harvested and labelled with a cocktail of anti-lineage antibodies (PE-cy7), anti-CD34 (FITC), anti-CD38 (PE) and anti-CD123 (PERCP cy5). The sub-population expressing a leukaemic stem cell (LSC) phenotype were subsequently identified and were expressed as a percentage of all viable cells left in the culture. The percentages of stem cells remaining were then plotted on a dose-response graph and the effects of the compounds were compared with 8-chloroadenosine.
The data obtained in these experiments were evaluated using one way ANOVA. All data was confirmed as Gaussian or a Gaussian approximation using the omnibus K2 test. LD50 values were calculated from the non-linear regression and line of best-fit analysis of the sigmoidal dose-response curves. All statistical analyses were performed using Graphpad Prism 6.0 software (Graphpad Software Inc., San Diego, Calif.).

HL-60 = experiment: CellTiterGlo viability assay, HL-60; assay type: cell-based; details: Homo sapiens, HL-60, 72 h, read-out: IC50 HL-60
Protocol: (§1) In vitro viability assay were performed to assess the effects of compounds on cell viability in selected cell lines over ˜72 hrs using the CellTiterGlo (CTG, Promega-G7573) assay. The tests were performed in duplicates with treatment of compounds at 9 points, 3.16 folds titration in 96 well plates over ˜72 hrs. The compound starting concentrations were 198 μM. Cell viability assay using CellTiterGlo in 96-well plate were performed. Compound treatment 72 hrs, standard growth conditions, duplicates. Compounds were dissolved to 40 mM with thawed […]. Compounds were serially diluted at 3.16 fold in thawed DMSO, and warmed to 37° C. before being dissolved in media (2 μl+200 μl). After compounds were dissolved in media, media containing compounds were warmed to 37° C. in incubator and then compounds in media were added to cell plates (50 μl+50 μl) in duplicates. The compounds' final concentrations were from […] to 19.9 nM. All compound solubilities were checked and recorded again, then the plates were transferred to CO2 tissue culture incubator immediately and incubated for 3 days. DMSO final concentration is 0.5%.

Murine leukemia L1210 = experiment: Cell proliferation (Coulter count) assay, L1210; assay type: cell-based; details: Mus musculus, 48 h, read-out: absolute IC50, L1210
Description: (§2) Lovo: cell line derived from a metastatic site in a patient with colon cancer MCF7: human oestrogen sensitive mammary epithelial cell line PC3: human prostate cancer cell line A549: cancerous lung tissue derived cells L1210: lymphoblast cell line derived from a mouse with lymphocytic leukaemia FM3A: mammary carcinoma murine cells CEM: human T-lymphoblasts, derived from the blood of a patient with acute lymphoblastic leukaemia HeLa: epithelial cells from a patient with cervical adenocarcinoma
(§3) Murine leukemia L1210, human T-lymphocyte CEM, and human cervix carcinoma HeLa cells were obtained from the American Type Culture Collection (ATCC) (Rockville, Md.). All cells were maintained in Dulbecco's modified Eagle's medium (DMEM) (Invitrogen, Carlsbad, Calif.) with 10% fetal bovine serum (FBS) (Biochrom AG, Berlin, Germany), 10 mM Hepes, and 1 mM sodiumpyruvate (Invitrogen). Cells were grown at 37° C. in a humidified incubator with a gas phase of 5% CO2. Monolayer cells (HeLa and […]) were seeded in 96-well microtiter plates (Nunc, Roskilde, Denmark) at 10 000 cells/well. After 24 h, an equal volume of fresh medium containing the test compounds was added. On day 5, cells were trypsinized and counted in a Coulter counter (Analis, Suarlee, Belgium). Suspension cells (L1210, CEM) were seeded in 96-well microtiter plates (Nunc) at 60 000 cells/well in the presence of a given amount of the test compounds. The cells were allowed to proliferate for 48 h (L1210) or 72 h (CEM) and were then counted in a Coulter counter. The 50% inhibitory concentration (IC50) was defined as the compound concentration required to reduce cell proliferation by 50%. The cytostatic activity of the compounds was determined after 3 days, as outlined above.

HEL92.1.7 = experiment: CellTiterGlo viability assay, HEL92.1.7; assay type: cell-based; details: Homo sapiens, HEL 92.1.7, 72 h, read-out: IC50 HEL92.1.7
Protocol: as §1

RL = experiment: CellTiterGlo viability assay, RL; assay type: cell-based; details: Homo sapiens, RL, 72 h, read-out: IC50 RL
Protocol: as §1

KG-1 = experiment: CellTiterGlo viability assay, KG-1; assay type: cell-based; details: Homo sapiens, KG-1, 72 h, read-out: IC50 KG-1
Protocol: as §1

NCI-H929 = experiment: CellTiterGlo viability assay, NCI-H929; assay type: cell-based; details: Homo sapiens, NCI-H929, 72 h, read-out: IC50 NCI-H929
Protocol: as §1

CCRFCEM = experiment: CellTiterGlo viability assay, CCRFCEM; assay type: cell-based; details: Homo sapiens, CCRF-CEM, 72 h, read-out: IC50 CCRFCEM
Protocol: as §1

RPMI-8226 = experiment: CellTiterGlo viability assay, RPMI-8226; assay type: cell-based, Human; details: Homo sapiens, RPMI-8226, 72 h, read-out: IC50 RPMI-8226
Protocol: as §1

K562 = experiment: CellTiterGlo viability assay, K562; assay type: cell-based; details: Homo sapiens, K562, 72 h, read-out: IC50 K562
Protocol: as §1

[2] = system: human cervix carcinoma HeLa cells; experiment: Cell proliferation (Coulter count) assay, HeLa; assay type: cell-based; details: 120 h, cell count on day 5, read-out: absolute IC50, HeLa
Description: as §2, §3

MV4-11 = experiment: CellTiterGlo viability assay, MV4-11; assay type: cell-based; details: Homo sapiens, MV4-11, 72 h, read-out: IC50 MV4-11
Protocol: as §1

human T-lymphocyte CEM = experiment: Cell proliferation (Coulter count) assay, CEM; assay type: cell-based; details: 72 h, read-out: absolute IC50, CEM
Description: as §2, §3

A549 = experiment: MTT cytotoxicity assay, A549; assay type: cell-based; details: Homo sapiens, 96 h compound exposure, read-out: absolute IC50, A549
Description: as §2
(§4) Anti-tumour evaluation in MCF7, LoVo, A549 and PC3 cell lines was performed by MTT assay. Compounds were prepared as 0.1-100 mM stock solutions dissolved in DMSO and stored at −20° C. Cells were seeded into 96-well microtitre plates at a density of 5×10^3 cells per well and allowed 24 hours to adhere. Decimal compound dilutions were prepared in medium immediately prior to each assay (final concentration 0.1-100 μM). Experimental medium was DMEM+10% FCS (PC3 and Lovo) or RPMI+10% heat inactivated FCS (A549 and MCF7). Following 96 h compound exposure at 37° C., 5% CO2, MTT reagent (Sigma Aldrich) was added to each well (final concentration 0.5 mg/ml). Incubation at 37° C. for 4 h allowed reduction of MTT by viable cells to an insoluble formazan product. MTT was removed and formazan solubilised by addition of 10% Triton X-100 in PBS. Absorbance was read on a Tecan Sunrise spectrophotometer at 540 nm as a measure of cell viability; thus inhibition relative to control was determined (IC50).

MCF7 = experiment: MTT cytotoxicity assay, MCF7; assay type: cell-based; details: Homo sapiens, 96 h compound exposure, read-out: absolute IC50, MCF7
Description: as §2, §4

PC3 = experiment: MTT cytotoxicity assay, PC3; assay type: cell-based; details: Homo sapiens, PC-3, 96 h compound exposure, read-out: absolute IC50, PC3
Description: as §2, §4

Lovo = experiment: MTT cytotoxicity assay, Lovo; assay type: cell-based; details: Homo sapiens, 96 h compound exposure, read-out: absolute IC50, Lovo
Description: as §2, §4

Compound: Nc1nc(Cl)nc2c1ncn2[C@H]1C[C@H](O)[C@@H](CO)O1 [Cladribine]
- Change relative to control (%) [1]: +2.0%
- KG-1a (CD34+/CD38−/CD123+) % compartment [1]: 6.0%

Compound: Nc1nc(Cl)nc2c1ncn2[C@@H]1O[C@H](CO)[C@@H](O)[C@@H]1F [Clofarabine]
- Change relative to control (%) [1]: −0.2%
- KG-1a (CD34+/CD38−/CD123+) % compartment [1]: 3.3%

Compound: Nc1ncnc2c1nc(Cl)n2[C@@H]1O[C@H](COP(=O)(NCC(=O)OCc2ccccc2)Oc2cccc3ccccc23)C(O)C1O (some centres unmarked) [Compound L, 5′-([(benzylo-yl-glycin-N-yl)-naphth-1-yl]-phosphatyl) 8-chloroadenosine]
- pIC50 (HL-60): 4.82 to 5.30
- pIC50 (Murine leukemia L1210): 4.82 to 5.30
- pIC50 (HEL92.1.7): 5.30 to 7.00
- pIC50 (RL): 4.82 to 5.30
- pIC50 (KG-1): 4.82 to 5.30
- pIC50 (NCI-H929): 4.00 to 4.82
- pIC50 (CCRFCEM): 4.82 to 5.30
- pIC50 (RPMI-8226): 5.30 to 7.00
- pIC50 (K562): 4.82 to 5.30
- pIC50 [2]: 5.30 to 7.00
- pIC50 (MV4-11): 5.30 to 7.00
- pIC50 (human T-lymphocyte CEM): 5.30 to 7.00

Compound: CCCCCOC(=O)CNP(=O)(OC[C@H]1O[C@@H](n2c(Cl)nc3c(N)ncnc32)C(O)C1O)Oc1cccc2ccccc12 (some centres unmarked) [O, 5′-([(Pent-1-yloxy-glycin-N-yl)-naphth-1-yl]-phosphatyl) 8-chloroadenosine]
- pIC50 (HL-60): 4.00 to 4.82
- pIC50 (Murine leukemia L1210): 5.30 to 7.00
- pIC50 (HEL92.1.7): 4.00 to 4.82
- pIC50 (RL): 4.00 to 4.82
- pIC50 (KG-1): 4.00 to 4.82
- pIC50 (NCI-H929): 4.00 to 4.82
- pIC50 (CCRFCEM): 4.00 to 4.82
- pIC50 (RPMI-8226): 4.82 to 5.30
- pIC50 (K562): 4.82 to 5.30
- pIC50 [2]: 5.30 to 7.00
- pIC50 (MV4-11): 5.30 to 7.00
- pIC50 (human T-lymphocyte CEM): 5.30 to 7.00

Compound: Nc1ncnc2c1nc(Cl)n2[C@@H]1O[C@H](COP(=O)(N[C@@H](Cc2ccccc2)C(=O)OCc2ccccc2)Oc2cccc3ccccc23)C(O)C1O (stereo partly drawn) [P, 5′-([(Benzyloxy-L-phenylalanin-N-yl)-naphth-1-yl]-phosphatyl) 8-chloroadenosine]
- pIC50 (HL-60): 5.30 to 7.00
- pIC50 (Murine leukemia L1210): 4.82 to 5.30
- pIC50 (HEL92.1.7): 5.30 to 7.00
- pIC50 (RL): 4.82 to 5.30
- pIC50 (KG-1): 4.82 to 5.30
- pIC50 (NCI-H929): 5.30 to 7.00
- pIC50 (CCRFCEM): 4.82 to 5.30
- pIC50 (RPMI-8226): 5.30 to 7.00
- pIC50 (K562): 5.30 to 7.00
- pIC50 [2]: 5.30 to 7.00
- pIC50 (MV4-11): 5.30 to 7.00
- pIC50 (human T-lymphocyte CEM): 5.30 to 7.00

Compound: CCCCCOC(=O)[C@H](Cc1ccccc1)NP(=O)(OC[C@H]1O[C@@H](n2c(Cl)nc3c(N)ncnc32)C(O)C1O)Oc1cccc2ccccc12 (stereo partly drawn) [Q, 5′-([(Pent-1-yloxy-L-phenylalanin-N-yl)-naphth-1-yl]-phosphatyl) 8-chloroadenosine]
- pIC50 (HL-60): 4.82 to 5.30
- pIC50 (Murine leukemia L1210): 4.82 to 5.30
- pIC50 (HEL92.1.7): 5.30 to 7.00
- pIC50 (RL): 4.82 to 5.30
- pIC50 (KG-1): 4.82 to 5.30
- pIC50 (NCI-H929): 4.82 to 5.30
- pIC50 (CCRFCEM): 4.82 to 5.30
- pIC50 (RPMI-8226): 5.30 to 7.00
- pIC50 (K562): 5.30 to 7.00
- pIC50 [2]: 5.30 to 7.00
- pIC50 (MV4-11): 5.30 to 7.00
- pIC50 (human T-lymphocyte CEM): 5.30 to 7.00

Compound: C[C@H](NP(=O)(OC[C@H]1O[C@@H](n2c(Cl)nc3c(N)ncnc32)C(O)C1O)Oc1ccccc1)C(=O)OC1CCCCC1 (stereo partly drawn) [X, 5′-([(Cyclohexyloxy-L-alanin-N-yl)-phenyl]-phosphatyl) 8-chloroadenosine]
- pIC50 (A549): 4.00 to 4.82
- pIC50 (MCF7): 5.30 to 7.00
- pIC50 (PC3): 5.30 to 7.00
- pIC50 (Lovo): 5.30 to 7.00

Source: US20190375778A1, “ADENOSINE DERIVATIVES FOR USE IN THE TREATMENT OF CANCER” (NuCana plc, priority 2016, published 2019)
